Measurements as given in US9359338B2, “Cyclopropanecarboxamido-substitute aromatic compounds as anti-tumor agents” (Crown Bioscience Inc. (Taiwan), priority 2012, dated 2016).
pIC50: −log10 of the molar value. Read-outs that look alike come from different tables or passages of the source.

Key:
KDR kinase (790-1356 AA) = KDR kinase (790-1356 AA) (Homo sapiens (Human), UniProt P35968); test: Inhibitory activity at KDR kinase (Lance Ultra Ulight-TK assay); type: biochemical
Summary of the method: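 Kinase (20 nM final) and compound were premixed 20 min at 30 °C, then phosphorylation ran 2 h at 30 °C with ATP at 90 μM and Ulight-TK substrate at 50 μM, pH 7.5, Mg2+ and Mn2+ present.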

PLC-PRF-5 cells = test: Inhibition of proliferation of PLC-PRF-5 cells (ATPlite); type: cell-based; conditions: Homo sapiens
Summary of the method: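 Antiproliferative IC50 from luminescent ATP detection (ATPlite) after 96 h compound exposure at 37 °C. Cells grown in DMEM plus 10% FBS and allowed 2 h to settle, then dosed with eight 3-fold dilutions topping at 30 μM final, DMSO 0.3%.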

pERK in MDA-MB-231 cells = test: Inhibitory activity at pERK (In Cell Western, MDA-MB-231 cells); type: cell-based; conditions: Homo sapiens
Summary of the method: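 pERK was measured by in-cell immunofluorescence (PI nuclear counterstain, Acumen read-out) in fixed MDA-MB-231 cells. Compound exposure lasted 2 h in DMEM with 0.1% BSA, using eight 3-fold dilutions starting at 30 μM final and 0.3% DMSO. IC50 values were derived from the resulting curves.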

[1] = PLC-PRF-5, PLC-PRF-5 cells, read-out: PLC-PRF-5 cell proliferation IC50
[2] = MDA-MB-231, MDA-MB-231 cells, read-out: MDA-MB-231 pERK IC50

KDR kinase (790-1356 AA), sequence (P35968 790-1356): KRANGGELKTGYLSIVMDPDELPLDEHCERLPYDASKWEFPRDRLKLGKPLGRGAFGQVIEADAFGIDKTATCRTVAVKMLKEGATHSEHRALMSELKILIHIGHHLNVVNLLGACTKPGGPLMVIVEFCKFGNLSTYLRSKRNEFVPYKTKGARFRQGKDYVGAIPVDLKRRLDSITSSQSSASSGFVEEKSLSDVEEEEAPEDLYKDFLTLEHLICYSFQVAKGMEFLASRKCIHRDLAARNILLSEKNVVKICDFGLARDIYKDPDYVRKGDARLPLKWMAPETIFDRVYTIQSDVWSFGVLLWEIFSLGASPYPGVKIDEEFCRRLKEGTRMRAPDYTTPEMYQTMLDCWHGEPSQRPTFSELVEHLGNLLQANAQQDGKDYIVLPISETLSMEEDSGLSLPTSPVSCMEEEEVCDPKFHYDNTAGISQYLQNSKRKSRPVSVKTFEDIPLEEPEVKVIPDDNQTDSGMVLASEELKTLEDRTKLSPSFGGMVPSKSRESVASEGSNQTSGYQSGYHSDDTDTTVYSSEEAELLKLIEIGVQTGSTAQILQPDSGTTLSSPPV

CC(F)(F)c1cc(NC(=O)Nc2ccc(Oc3ccnc(NC(=O)C4CC4)c3)cc2)ccc1F [Exe. 150]
pIC50 (KDR kinase (790-1356 AA)): 7.94
pIC50 (PLC-PRF-5 cells; [1]): 6.13
pIC50 (pERK in MDA-MB-231 cells; [2]): 7.69

Cc1ccc(NC(=O)Nc2ccc(Oc3ccnc(NC(=O)C4CC4)c3)c(F)c2)cc1C(F)(F)F [Exe. 154]
pIC50 (KDR kinase (790-1356 AA)): 7.95
pIC50 (PLC-PRF-5 cells; [1]): 6.89
pIC50 (pERK in MDA-MB-231 cells; [2]): 7.83

O=C(Nc1cc(F)cc(C(F)(F)F)c1)Nc1ccc(Oc2ccnc(NC(=O)C3CC3)c2)c(F)c1 [Exe. 155]
pIC50 (KDR kinase (790-1356 AA)): 7.92
pIC50 (PLC-PRF-5 cells; [1]): 6.24
pIC50 (pERK in MDA-MB-231 cells; [2]): 6.71

O=C(Nc1ccnc(C(F)(F)F)c1)Nc1ccc(Oc2ccnc(NC(=O)C3CC3)c2)c(F)c1 [Exe. 158]
pIC50 (KDR kinase (790-1356 AA)): 8.08
pIC50 (PLC-PRF-5 cells; [1]): 5.98
pIC50 (pERK in MDA-MB-231 cells; [2]): 7.09

O=C(Nc1ccc(Oc2ccnc(NC(=O)C3CC3)c2)c(F)c1)Nc1ccc(C(F)(F)F)cc1Cl [Exe. 160]
pIC50 (KDR kinase (790-1356 AA)): 8.11
pIC50 (PLC-PRF-5 cells; [1]): 5.39
pIC50 (pERK in MDA-MB-231 cells; [2]): 6.73

O=C(Nc1cncc(C(F)(F)F)c1)Nc1ccc(Oc2ccnc(NC(=O)C3CC3)c2)c(F)c1 [Exe. 169]
pIC50 (KDR kinase (790-1356 AA)): 7.84
pIC50 (PLC-PRF-5 cells; [1]): 6.47
pIC50 (pERK in MDA-MB-231 cells; [2]): 7.37

O=C(Nc1cc(N2CCOCC2=O)cc(C(F)(F)F)c1)Nc1ccc(Oc2ccnc(NC(=O)C3CC3)c2)c(F)c1 [Exe. 171]
pIC50 (KDR kinase (790-1356 AA)): 7.91
pIC50 (PLC-PRF-5 cells; [1]): 5.70
pIC50 (pERK in MDA-MB-231 cells; [2]): 7.52

CN1CCN(c2cc(C(F)(F)F)cc(NC(=O)Nc3ccc(Oc4ccnc(NC(=O)C5CC5)c4)c(F)c3)n2)CC1 [Exe. 172]
pIC50 (KDR kinase (790-1356 AA)): 7.83
pIC50 (PLC-PRF-5 cells; [1]): 6.71
pIC50 (pERK in MDA-MB-231 cells; [2]): 7.13

CN1CCC(Nc2cc(C(F)(F)F)cc(NC(=O)Nc3ccc(Oc4ccnc(NC(=O)C5CC5)c4)c(F)c3)n2)CC1 [Exe. 173]
pIC50 (KDR kinase (790-1356 AA)): 7.65
pIC50 (PLC-PRF-5 cells; [1]): 6.60
pIC50 (pERK in MDA-MB-231 cells; [2]): 7.10

O=C(Nc1ccc(Oc2ccnc(NC(=O)C3CC3)c2)c(F)c1)Nc1cc(C(F)(F)F)cc(N2CCOCC2)n1 [Exe. 174]
pIC50 (KDR kinase (790-1356 AA)): 8.27
pIC50 (PLC-PRF-5 cells; [1]): 6.62
pIC50 (pERK in MDA-MB-231 cells; [2]): 7.22

O=C(Nc1ccc(Oc2ccnc(NC(=O)C3CC3)c2)c(F)c1)Nc1cc(OC(F)(F)F)ccc1F [Exe. 176]
pIC50 (KDR kinase (790-1356 AA)): 8.24
pIC50 (PLC-PRF-5 cells; [1]): 7.22
pIC50 (pERK in MDA-MB-231 cells; [2]): 7.40

O=C(Nc1ccc(Oc2ccnc(NC(=O)C3CC3)c2)c(F)c1)Nc1ccc(F)c(OC(F)(F)F)c1 [Exe. 177]
pIC50 (KDR kinase (790-1356 AA)): 8.02
pIC50 (PLC-PRF-5 cells; [1]): 6.16
pIC50 (pERK in MDA-MB-231 cells; [2]): 7.43

CC(F)(F)c1cc(F)cc(NC(=O)Nc2ccc(Oc3ccnc(NC(=O)C4CC4)c3)c(F)c2)c1 [Exe. 179]
pIC50 (KDR kinase (790-1356 AA)): 7.98
pIC50 (PLC-PRF-5 cells; [1]): 6.69
pIC50 (pERK in MDA-MB-231 cells; [2]): 7.29

CC(F)(F)c1cccc(NC(=O)Nc2ccc(Oc3ccnc(NC(=O)C4CC4)c3)c(F)c2)c1 [Exe. 180]
pIC50 (KDR kinase (790-1356 AA)): 8.01
pIC50 (PLC-PRF-5 cells; [1]): 6.82
pIC50 (pERK in MDA-MB-231 cells; [2]): 7.50

O=C(Nc1ccc(Oc2ccnc(NC(=O)C3CC3)c2)c(F)c1)Nc1ccc(C(F)(F)F)c(Cl)c1 [Exe. 185]
pIC50 (KDR kinase (790-1356 AA)): 7.91
pIC50 (PLC-PRF-5 cells; [1]): 5.83
pIC50 (pERK in MDA-MB-231 cells; [2]): 7.33

Cc1cc(Oc2ccnc(NC(=O)C3CC3)c2)ccc1NC(=O)Nc1cc(F)cc(C(F)(F)F)c1 [Exe. 192]
pIC50 (KDR kinase (790-1356 AA)): 7.76
pIC50 (PLC-PRF-5 cells; [1]): 5.54
pIC50 (pERK in MDA-MB-231 cells; [2]): 7.70

Cc1cc(Oc2ccnc(NC(=O)C3CC3)c2)ccc1NC(=O)Nc1cc(F)cc(C(C)(F)F)c1 [Exe. 197]
pIC50 (KDR kinase (790-1356 AA)): 8.24
pIC50 (PLC-PRF-5 cells; [1]): 5.48
pIC50 (pERK in MDA-MB-231 cells; [2]): 7.85

Cc1cc(Oc2ccnc(NC(=O)C3CC3)c2)ccc1NC(=O)Nc1cc(C(C)(F)F)ccc1F [Exe. 198]
pIC50 (KDR kinase (790-1356 AA)): 8.08
pIC50 (PLC-PRF-5 cells; [1]): 6.13
pIC50 (pERK in MDA-MB-231 cells; [2]): 8.24

Cc1cc(Oc2ccnc(NC(=O)C3CC3)c2)ccc1NC(=O)Nc1ccc(F)c(C(C)(F)F)c1 [Exe. 200]
pIC50 (KDR kinase (790-1356 AA)): 8.00
pIC50 (PLC-PRF-5 cells; [1]): 5.50
pIC50 (pERK in MDA-MB-231 cells; [2]): 8.26

O=C(Nc1cccc(C(F)(F)F)c1)Nc1cnc(Oc2ccnc(NC(=O)C3CC3)c2)c(F)c1 [Exe. 201]
pIC50 (KDR kinase (790-1356 AA)): 7.94
pIC50 (PLC-PRF-5 cells; [1]): 6.62
pIC50 (pERK in MDA-MB-231 cells; [2]): 6.49

CC(F)(F)c1ccc(F)c(NC(=O)Nc2cnc(Oc3ccnc(NC(=O)C4CC4)c3)c(F)c2)c1 [Exe. 202]
pIC50 (KDR kinase (790-1356 AA)): 7.90
pIC50 (PLC-PRF-5 cells; [1]): 7.18
pIC50 (pERK in MDA-MB-231 cells; [2]): 6.61

CN(c1ccnc(NC(=O)C2CC2)c1)c1ccc(NC(=O)Nc2cccc(C(F)(F)F)c2)c(F)c1 [Exe. 203]
pIC50 (KDR kinase (790-1356 AA)): 7.79
pIC50 (PLC-PRF-5 cells; [1]): 6.27
pIC50 (pERK in MDA-MB-231 cells; [2]): 7.21

O=C(Nc1cccc(C(F)(F)F)c1)Nc1ccc(Nc2ccnc(NC(=O)C3CC3)c2)cc1F [Exe. 204]
pIC50 (KDR kinase (790-1356 AA)): 8.03
pIC50 (PLC-PRF-5 cells; [1]): 5.73
pIC50 (pERK in MDA-MB-231 cells; [2]): 7.14

N#Cc1ccc(NC(=O)Nc2ccc(Oc3ccnc(NC(=O)C4CC4)c3)cc2F)cc1C(F)(F)F [Exe. 206]
pIC50 (KDR kinase (790-1356 AA)): 7.84
pIC50 (PLC-PRF-5 cells; PLC-PRF-5, read-out: PLC-PRF-5 cell proliferation IC50): 5.78
pIC50 (pERK in MDA-MB-231 cells; MDA-MB-231, read-out: MDA-MB-231 pERK IC50): 8.09

Cc1ccc(NC(=O)Nc2ccc(Oc3ccnc(NC(=O)C4CC4)c3)cc2F)cc1C(F)(F)F [Exe. 207]
pIC50 (KDR kinase (790-1356 AA)): 7.99
pIC50 (PLC-PRF-5 cells; [1]): 7.15
pIC50 (pERK in MDA-MB-231 cells; [2]): 8.08

O=C(Nc1cncc(C(F)(F)F)c1)Nc1ccc(Oc2ccnc(NC(=O)C3CC3)c2)cc1F [Exe. 213]
pIC50 (KDR kinase (790-1356 AA)): 7.97
pIC50 (PLC-PRF-5 cells; [1]): 7.10
pIC50 (pERK in MDA-MB-231 cells; [2]): 8.14

O=C(Nc1ccc(Oc2ccnc(NC(=O)C3CC3)c2)cc1F)Nc1cc(OC(F)(F)F)ccc1F [Exe. 214]
pIC50 (KDR kinase (790-1356 AA)): 8.03
pIC50 (PLC-PRF-5 cells; [1]): 6.74
pIC50 (pERK in MDA-MB-231 cells; [2]): 7.94

O=C(Nc1ccc(F)c(C2CC2)c1)Nc1ccc(Oc2ccnc(NC(=O)C3CC3)c2)cc1F [Exe. 222]
pIC50 (KDR kinase (790-1356 AA)): 8.06
pIC50 (PLC-PRF-5 cells; [1]): 6.31
pIC50 (pERK in MDA-MB-231 cells; [2]): 7.76

Cc1ccc(Oc2ccnc(NC(=O)C3CC3)c2)cc1NC(=O)Nc1ccc(F)c(C(F)(F)F)c1 [Exe. 223]
pIC50 (KDR kinase (790-1356 AA)): 8.16
pIC50 (PLC-PRF-5 cells; [1]): 5.46
pIC50 (pERK in MDA-MB-231 cells; [2]): 8.05

Cc1ccc(Oc2ccnc(NC(=O)C3CC3)c2)cc1NC(=O)Nc1cccc(C(F)(F)F)c1 [Exe. 226]
pIC50 (KDR kinase (790-1356 AA)): 8.04
pIC50 (PLC-PRF-5 cells; [1]): 5.45
pIC50 (pERK in MDA-MB-231 cells; [2]): 7.96

Cc1ccc(Oc2ccnc(NC(=O)C3CC3)c2)cc1NC(=O)Nc1ccc(Cl)c(C(C)(F)F)c1 [Exe. 228]
pIC50 (KDR kinase (790-1356 AA)): 7.83
pIC50 (PLC-PRF-5 cells; [1]): 5.48
pIC50 (pERK in MDA-MB-231 cells; [2]): 7.92

Cc1ccc(Oc2ccnc(NC(=O)C3CC3)c2)cc1NC(=O)Nc1ccc(F)c(C(C)(F)F)c1 [Exe. 229]
pIC50 (KDR kinase (790-1356 AA)): 7.87
pIC50 (PLC-PRF-5 cells; [1]): 5.50
pIC50 (pERK in MDA-MB-231 cells; [2]): 8.16

Cc1cc(NC(=O)Nc2cc(F)cc(C(C)(F)F)c2)ccc1Oc1ccnc(NC(=O)C2CC2)c1 [Exe. 233]
pIC50 (KDR kinase (790-1356 AA)): 8.09
pIC50 (PLC-PRF-5 cells; [1]): 6.25
pIC50 (pERK in MDA-MB-231 cells; [2]): 7.73

O=C(Nc1cc(-c2cn[nH]c2)cc(C(F)(F)F)c1)Nc1ccc(Oc2ccnc(NC(=O)C3CC3)c2)c(F)c1 [Exe. 238]
pIC50 (KDR kinase (790-1356 AA)): 7.81
pIC50 (PLC-PRF-5 cells; [1]): 5.65
pIC50 (pERK in MDA-MB-231 cells; [2]): 7.24

O=C(Nc1cc(NC(=O)[C@@H]2CCCN2)cc(C(F)(F)F)c1)Nc1ccc(Oc2ccnc(NC(=O)C3CC3)c2)c(F)c1 [Exe. 240]
pIC50 (KDR kinase (790-1356 AA)): 7.72
pIC50 (PLC-PRF-5 cells; [1]): 5.98
pIC50 (pERK in MDA-MB-231 cells; [2]): 7.57

CN1CCC(C(=O)Nc2cc(NC(=O)Nc3ccc(Oc4ccnc(NC(=O)C5CC5)c4)c(F)c3)cc(C(F)(F)F)c2)CC1 [Exe. 242]
pIC50 (KDR kinase (790-1356 AA)): 7.78
pIC50 (PLC-PRF-5 cells; [1]): 5.33
pIC50 (pERK in MDA-MB-231 cells; [2]): 6.43
